The test system of this assay is MDA-MB-468 breast. As to the kind of experiment: growth of human tumour cells (NCI), 48 h.

Here are results for 45 compounds from PubChem BioAssay (NCI).

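Test compounds were applied to cells in 96-well plates for 48 hours at 5 doses. The concentration for 50% growth inhibition is given as GI50. TGI denotes the concentration required for complete inhibition of growth.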

Turning to `CCCCCCOC(=O)CC1=C(C)/C(=C/c2[nH]c(-c3ccc[nH]3)cc2OC)N=C1C`, the GI50 is 0.155 µM and the TGI came to 1.43 µM.
For `COc1cc(OC)c(C(=O)/C=C/c2ccc(C#N)cc2)c(OC)c1`, in that order: 1.17 µM and 3.48 µM.
The like results for `CCOC(=O)c1c(NN2CCN(CC(F)(F)F)CC2)oc(/C=C2\C=Nc3ncccc32)c1O` were, in that order, 3.01 µM and 12 µM.
The like results for `Clc1ccc(-c2cnc3c(-c4ccnc(N5CCNCC5)c4)cnn3c2)cc1` were, in that order, 1.54 µM and 2.99 µM.
Turning to `CC(C)CCN(CCC(C)C)CC(=O)Nc1ccc(S(=O)(=O)c2ccc(NC(=O)CN(CCC(C)C)CCC(C)C)cc2)cc1`, the GI50 is 2.39 µM and the TGI was 7.52 µM.
The like results for `c1cc(OCCN2CCCC2)ccc1CNc1ccc2nc(CCC3CCCCC3)[nH]c2c1` were, in that order, 1.47 µM and 3.63 µM.
The like results for `Cn1cnc([N+](=O)[O-])c1S(=O)(=O)Oc1ccc(Cl)cc1` were, in that order, 1.74 µM and 3.7 µM.
For `CCCCN(CCCC)P(=O)(Oc1ccccc1)Oc1ccccc1`, in that order: 3.03 µM and 11.7 µM.
On to `Clc1cc(Br)ccc1-c1ccc(CNCC2CCNCC2)o1`, for which the GI50 is 1.71 µM and the TGI came out at 3.41 µM.
The like results for `COc1ccc(Sc2[nH]c(C=O)c3ccccc23)cc1` were, in that order, 1.42 µM and 24.3 µM.
The like results for `O=C(COc1ccccc1)NNc1ccccc1` were, in that order, greater than 300 µM and greater than 300 µM.
As for `O=C1CN=C(c2ccc[nH]2)c2cc(Cl)ccc2N1`, the GI50 is greater than 100 µM and the TGI was greater than 100 µM.
`O=C(Nc1ccc(I)cc1F)c1cc(Br)ccc1O`: the GI50 is 0.401 µM and the TGI worked out at 2.33 µM.
The like results for `COc1ccc(C(=O)/C=C/c2cc(-c3ccc(OC)c(OC)c3)n[nH]2)cc1OC` were, in that order, 1.09 µM and 2.56 µM.
As for `CCOC(=O)c1ccc(N2NC(=O)/C(=C/c3ccc([N+](=O)[O-])o3)C2=O)cc1`, the GI50 is 6.69 µM and the TGI came to 14.5 µM.
In the case of `CCCCCCCCCCCCCCCCn1cc[n+](C)c1`, the GI50 was 0.092 µM and the TGI turned out to be 0.431 µM.
The like results for `Cc1nnn(C)c1-c1cnc2c3ccc(C(C)(C)O)cc3n([C@H](c3ccccc3)C3CCOCC3)c2c1` were, in that order, less than 0.01 µM and 8.91 µM.
As for `NC(=O)c1cn(C2CC(O)C(CO)O2)c2ncnc(N)c12` (stereo not given), the GI50 was 0.486 µM and the TGI was determined as 3.77 µM.
The like results for `COc1cc2c(cc1OC)[C@@H]1C(=O)c3ccc4c(c3O[C@@H]1CO2)C[C@H](C(C)C)O4` were, in that order, less than 0.0181 µM and 0.867 µM.
For the compound `Cc1ncc(C(=O)Nc2ccc(CN3CCN(C)CC3)c(C(F)(F)F)c2)cc1C#Cc1cnc(N)c2ccc(C#N)cc12`, the GI50 was 0.0613 µM and the TGI is 5.13 µM.
Turning to `CC(C)(C)c1cc(C[P+](c2ccccc2)(c2ccccc2)c2ccccc2)cc(C(C)(C)C)c1O`, the GI50 was 0.216 µM and the TGI came out at 0.771 µM.
The like results for `OCc1ccc(-c2nc(-c3ccc4c(c3)OCO4)c(-c3ccccn3)[nH]2)cc1` were, in that order, greater than 25 µM and greater than 25 µM.
For `CCCN(CCC)c1ccc(/C=N/NC(=O)c2cccnc2)c(C)c1`, in that order: 2.95 µM and 15.1 µM.
For `COc1cccc(/C=N\NC(=O)c2ccncc2)c1O`, in that order: 2.32 µM and 11.2 µM.
For the compound `COC(=O)[C@H](Cc1cn(C)cn1)NC(=O)[C@H](CC(C)C)NC(=O)Nc1cc(C(F)(F)F)cc(C(F)(F)F)c1`, the GI50 was 3.71 µM and the TGI was greater than 10 µM.
The like results for `O=C1OC2(c3ccc(O)cc3Oc3cc(O)ccc32)c2cccc3cccc1c23` were, in that order, 16.1 µM and 34.3 µM.
For `COc1cc(CSc2nc3ccc(Cl)cc3c(=O)n2Cc2ccccc2)cc(OC)c1OC`, in that order: 1.07 µM and 4.03 µM.
The like results for `CCCCCSc1ccc2nc(NC(=O)OCC)sc2c1` were, in that order, 0.564 µM and 14.8 µM.
Regarding `CCn1nc(C2CCN(C(=O)CCO)CC2)nc1-c1cnc(N)c(-c2nnc(C(C)(C)C)o2)n1`, the GI50 is 1.28 µM and the TGI turned out to be 16.1 µM.
For `CCOc1ccccc1/C=N\N=C(N/N=C/c1ccccc1OCC)N/N=C/c1ccccc1OCC`, in that order: 1.54 µM and 7.16 µM.
For `COc1ccc(C2c3ccc4ccccc4c3Oc3ncn(CCCn4ccnc4)c(=N)c32)cc1OC` (stereo not given), in that order: 2.12 µM and 5.45 µM.
The like results for `Cc1[nH]c2ccccc2c1CO` were, in that order, 19.4 µM and 41.4 µM.
On to `Cc1[nH]c(C(=O)Nc2ccc(C(=O)NCCN)cc2OC(C)C)c(Cl)c1Cl`, for which the GI50 is 1.91 µM and the TGI is 3.67 µM.
The like results for `CC(C)[C@@]12C[C@@H](OC(=O)C3CO3)[C@@](C)(O1)[C@@H]1CC[C@@H](C)[C@H]1[C@@H]2OC(=O)/C=C/c1ccccc1` (stereo not given in full) were, in that order, 16.9 µM and 34.8 µM.
The like results for `CCCCCN(CCCCC)CCC[C@@H](C)[C@H]1CC[C@H]2[C@@H]3[C@H](OCCCN)C[C@@H]4C[C@H](OCCCN)CC[C@]4(C)[C@H]3C[C@H](OCCCN)[C@]12C` were, in that order, 13 µM and 29.8 µM.
For `COc1cccc2c1C(=O)c1c(O)c3c(c(O)c1C2=O)C[C@](O)(C(=O)CO)C[C@H]3O[C@@H]1C[C@@H](NC(=O)CCCN(C)C2(c3ccc(F)cc3)CC3CCC2C3)[C@H](O)[C@@H](C)O1` (stereo not given in full), in that order: 0.879 µM and 1.73 µM.
As for `Cc1cccc2c(=O)c3c(sc12)c(NCCCNCCO)nc1ccccc13`, the GI50 is 1.47 µM and the TGI stood at 3.04 µM.
As to `COC(=O)c1c2c(c(C)[n+]([O-])c1C)C(=O)C(NCc1ccccc1)=CC2=O`, the GI50 was 1.3 µM and the TGI is 3.15 µM.
For `CCc1cc2c(c(OCC(F)(F)F)c(C(=O)NC3CCN(C(=O)CO)CC3)n2C)c(=O)n1CC(=O)c1ccccc1`, in that order: 70.6 µM and greater than 100 µM.
The like results for `CCN1/C(=C/C(C)=C/c2sc3ccc4ccccc4c3[n+]2CC)Sc2ccc3ccccc3c21` were, in that order, 0.0156 µM and 0.156 µM.
The like results for `COc1ccc(C)c2sc(N(Cc3cccnc3)C(=O)c3ccc(C#N)cc3)nc12` were, in that order, 35 µM and greater than 100 µM.
Regarding `Cc1ccc(-c2cc(C(=O)Nc3ccc(S(=O)(=O)N4CCCCC4)cc3)[nH]n2)c(O)c1`, the GI50 was greater than 100 µM and the TGI was greater than 100 µM.
For `C#CCNC1CCC(c2csc(C#C)n2)=C1C` (stereo not given), the GI50 was 3.17 µM and the TGI was found to be 18.8 µM.
For `COC(=O)CCc1n(Cc2ccc3ccccc3c2)c2ccccc2[n+]1Cc1ccc2ccccc2c1`, in that order: 0.196 µM and 1.13 µM.
For `COc1ccc(Nc2ncc(I)c(NCCCNC(=O)C3CCC3)n2)cc1`, in that order: 11.9 µM and 38.6 µM.
